The target of data set [1] is T1, human ether-a-go-go potassium channel (hERG) expressed in HEK293 cells (Homo sapiens, UniProt Q12809).
T1 construct: expressed in transfected cells; host or cells: HEK293
Kind of data set: hERG binding by displacement of 3[H]-astemizole. The conditions noted are these: 3[H]-astemizole displacement; Ki from IC50 by Cheng and Prusoff. As to the method: Compounds were evaluated for binding to the human ether-a-go-go potassium channel (hERG) expressed in HEK293 cells by displacement of ^3[H]-astemizole according to the methods by Finlayson et al. (K. Finlayson., L. Turnbull, C. T. January, J. Sharkey, J. S. Kelly; ^3[H]Dofetilide binding to HERG transfected membranes: a potential high throughput preclinical screen. Eur. J. Pharmacol. 2001, 430, 147-148). Compounds were incubated at 1 or 10 μM final concentration, in duplicate, and the amount of displaced ^3[H]-astemizole determined by liquid scintillation spectroscopy. In some cases, a seven concentration (each concentration in duplicate) displacement curve was generated to determine an IC50.
(§1) Binding IC50 values were determined from displacement curves (four-six concentrations, each concentration in duplicate) fit by a non-linear, least squares, regression analysis using MathIQ (ID Business Solutions Ltd., UK). The binding Ki's were determined from the IC50 according to the method of Cheng and Prusoff (Y. Cheng and W. H. Prusoff; Relationship between the inhibition constant (K1) and the concentration of inhibitor which causes 50 percent inhibition (IC50) of an enzymatic reaction. Biochem. Pharmacol. 1973, 22: 3099-3108).
In general terms: hERG is a cardiac potassium channel; its block is linked to QT prolongation.

In data set [2] the target is rat alpha-1 adrenergic receptor in rat brain membranes. Kind of data set: alpha-1 adrenergic receptor binding by displacement of 3[H]-prazosin. To be noted: 3[H]-prazosin displacement, read-out: α1 IC50. As to the method:
Binding to the rat alpha-1 adrenergic receptor in rat brain membranes was determined by displacement of ^3[H]-prazosin (P. Greengrass and R. Bremner; Binding characteristics of 3H-prazosin to rat brain a-adrenergic receptors. Eur. J. Pharmacol. 1979, 55: 323-326). Compounds were incubated at 0.3 or 3 μM final concentration, in duplicate, and the amount of displaced ^3[H]-prazosin determined by liquid scintillation spectroscopy.
as §1

The target of data set [3] is NMDA receptor (NR1 + NR2 subunits) (Rattus norvegicus, UniProt P35439+Q00960). Kind of data set: Two electrode voltage clamp recording from Xenopus laevis oocytes (pH dependence of NMDA antagonism). It counts as cell-based. The conditions noted are these: Table 22. The method, then: cRNA was synthesized from linearized template cDNA for rat glutamate receptor subunits according to manufacturer specifications (Ambion). Quality of synthesized cRNA was assessed by gel electrophoresis, and quantity was estimated by spectroscopy and gel electrophoresis. Stage V and VI oocytes were surgically removed from the ovaries of large, well-fed and healthy Xenopus laevis anesthetized with 3-amino-benzoic acid ethyl ester (3 gm/l) as previously described. Clusters of isolated oocytes were incubated with 292 U/ml Worthington (Freehold, N.J.) type IV collagenase or 1.3 mg/ml collagenase (Life Technologies, Gaithersburg, Md.; 17018-029) for 2 hr in Ca^2+-free solution comprised of (in mM) 115 NaCl, 2.5 KCl, and 10 HEPES, pH 7.5, with slow agitation to remove the follicular cell layer. Oocytes were then washed extensively in the same solution supplemented with 1.8 mM CaCl2 and maintained in Barth's solution comprised of (in mM): 88 NaCl, 1 KCl, 2.4 NaHCO3, 10 HEPES, 0.82 MgSO4, 0.33 Ca(NO3)2, and 0.91 CaCl2 and supplemented with 100 μg/ml gentamycin, 10 μg/ml streptomycin, and 10 μg/ml penicillin. Oocytes were manually defolliculated and injected within 24 hrs of isolation with 3-5 ng of NR1 subunit cRNA and 7-10 ng of NR2 cRNA subunit in a 50 nl volume, or 5-10 ng of AMPA or kainate receptor cRNAs in a 50 nl volume, and incubated in Barth's solution at 18° C. for 1-7 d. Glass injection pipettes had tip sizes ranging from 10-20 microns, and were backfilled with mineral oil.
NMDA receptor (NR1 + NR2 subunits), sequence (Q00960 27-1482, other chains not shown): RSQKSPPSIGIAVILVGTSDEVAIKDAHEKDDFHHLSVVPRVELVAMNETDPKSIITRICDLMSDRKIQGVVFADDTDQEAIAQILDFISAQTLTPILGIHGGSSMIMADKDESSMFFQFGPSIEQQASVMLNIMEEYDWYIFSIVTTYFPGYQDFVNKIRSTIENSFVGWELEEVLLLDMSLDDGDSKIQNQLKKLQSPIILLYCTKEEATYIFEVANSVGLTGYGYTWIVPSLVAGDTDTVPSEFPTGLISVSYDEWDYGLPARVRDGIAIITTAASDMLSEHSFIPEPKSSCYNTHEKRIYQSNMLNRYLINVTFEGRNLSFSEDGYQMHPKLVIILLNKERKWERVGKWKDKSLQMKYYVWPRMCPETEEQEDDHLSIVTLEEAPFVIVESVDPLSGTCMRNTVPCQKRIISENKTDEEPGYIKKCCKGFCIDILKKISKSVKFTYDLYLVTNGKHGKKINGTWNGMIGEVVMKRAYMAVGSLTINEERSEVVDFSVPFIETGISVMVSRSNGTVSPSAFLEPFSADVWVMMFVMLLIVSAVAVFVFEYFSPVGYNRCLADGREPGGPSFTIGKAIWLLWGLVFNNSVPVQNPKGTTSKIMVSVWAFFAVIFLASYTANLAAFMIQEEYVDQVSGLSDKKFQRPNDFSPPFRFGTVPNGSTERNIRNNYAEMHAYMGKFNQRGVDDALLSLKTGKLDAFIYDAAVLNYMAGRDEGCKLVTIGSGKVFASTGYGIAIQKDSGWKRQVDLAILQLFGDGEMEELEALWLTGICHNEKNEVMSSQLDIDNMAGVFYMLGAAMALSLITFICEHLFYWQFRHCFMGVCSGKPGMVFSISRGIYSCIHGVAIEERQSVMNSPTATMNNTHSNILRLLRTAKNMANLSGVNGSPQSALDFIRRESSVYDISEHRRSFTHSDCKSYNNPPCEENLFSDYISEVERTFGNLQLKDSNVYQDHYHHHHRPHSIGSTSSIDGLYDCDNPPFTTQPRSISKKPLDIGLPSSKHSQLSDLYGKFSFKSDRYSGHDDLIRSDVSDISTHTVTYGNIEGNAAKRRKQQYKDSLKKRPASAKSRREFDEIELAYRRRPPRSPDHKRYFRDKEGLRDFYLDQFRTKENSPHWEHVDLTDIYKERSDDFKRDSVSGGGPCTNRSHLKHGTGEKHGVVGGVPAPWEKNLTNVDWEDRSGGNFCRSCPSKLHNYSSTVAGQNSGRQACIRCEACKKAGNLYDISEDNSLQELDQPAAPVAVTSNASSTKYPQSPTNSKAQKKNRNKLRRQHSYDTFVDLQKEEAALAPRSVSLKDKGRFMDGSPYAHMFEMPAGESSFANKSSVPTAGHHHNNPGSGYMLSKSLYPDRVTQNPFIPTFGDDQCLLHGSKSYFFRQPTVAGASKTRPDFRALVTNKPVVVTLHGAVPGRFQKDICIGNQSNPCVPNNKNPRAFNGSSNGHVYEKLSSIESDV
Two electrode voltage-clamp recordings were made 2-7 days post-injection as previously described. Oocytes were placed in a dual-track plexiglass recording chamber with a single perfusion line that splits in a Y-configuration to perfuse two oocytes. Dual recordings were made at room temperature (23° C.) using two Warner OC725B two-electrode voltage clamp amplifiers, arranged as recommended by the manufacturer. Glass microelectrodes (1-10 Megaohms) were filled with 300 mM KCl (voltage electrode) or 3 M KCl (current electrode). The bath clamps communicated across silver chloride wires placed into each side of the recording chamber, both of which were assumed to be at a reference potential of 0 mV. Oocytes were perfused with a solution comprised of (in mM) 90 NaCl, 1 KCl, 10 HEPES, and 0.5 BaCl2; pH was adjusted by addition of 1-3 M NaOH of HCl. Oocytes were recorded under voltage clamp at −40 mV. Final concentrations for control application of glutamate (50 μM) plus glycine (30 μM) were achieved by adding appropriate volumes from 100 and 30 mM stock solutions, respectively. In addition, 10 μM final EDTA was obtained by adding a 1:1000 dilution of 10 mM EDTA, in order to chelate contaminant divalent ions such as Zn^2+. Concentration-response curves for experimental compounds were obtained by applying in successive fashion maximal glutamate/glycine, followed by glutamate/glycine plus variable concentrations of experimental compounds. Dose response curves consisting of 4 to 8 concentrations were obtained in this manner. The baseline leak current at −40 mV was measured before and after recording, and the full recording linearly corrected for any change in leak current. Oocytes with glutamate-evoked responses smaller than 50 nA were not included in the analysis. The level of inhibition by applied experimental compounds was expressed as a percent of the initial glutamate response, and averaged together across oocytes from a single frog. Each experiment consisted of recordings from 3 to 10 oocytes obtained from a single frog. Results from 3-6 experiments were pooled, and the average percent responses at antagonist concentrations were fitted by the equation,
Percent Response=(100−minimum)/(1+([conc]/IC50)^nH)+minimum […]
On the technique in general: Two-electrode voltage clamp is typically applied to oocytes expressing channels or transporters.

The nature of data set [4]: Oral absorption (p.o. pharmacokinetics, Table 25). It counts as in vivo, Rats. To be noted: rat, plasma; for bioavailability: read-out: % Absorbed (% F); for AUC(0-t): read-out: AUC (0-last h) p.o.

Read-outs that look alike come from different tables or passages of the source.

This note sets out measurements from patent US20110160223A1, “NMDA Receptor Antagonists for the Treatment of Neuropsychiatric Disorders” (priority 2008, published 2011).

T1 sequence (Q12809 whole entry): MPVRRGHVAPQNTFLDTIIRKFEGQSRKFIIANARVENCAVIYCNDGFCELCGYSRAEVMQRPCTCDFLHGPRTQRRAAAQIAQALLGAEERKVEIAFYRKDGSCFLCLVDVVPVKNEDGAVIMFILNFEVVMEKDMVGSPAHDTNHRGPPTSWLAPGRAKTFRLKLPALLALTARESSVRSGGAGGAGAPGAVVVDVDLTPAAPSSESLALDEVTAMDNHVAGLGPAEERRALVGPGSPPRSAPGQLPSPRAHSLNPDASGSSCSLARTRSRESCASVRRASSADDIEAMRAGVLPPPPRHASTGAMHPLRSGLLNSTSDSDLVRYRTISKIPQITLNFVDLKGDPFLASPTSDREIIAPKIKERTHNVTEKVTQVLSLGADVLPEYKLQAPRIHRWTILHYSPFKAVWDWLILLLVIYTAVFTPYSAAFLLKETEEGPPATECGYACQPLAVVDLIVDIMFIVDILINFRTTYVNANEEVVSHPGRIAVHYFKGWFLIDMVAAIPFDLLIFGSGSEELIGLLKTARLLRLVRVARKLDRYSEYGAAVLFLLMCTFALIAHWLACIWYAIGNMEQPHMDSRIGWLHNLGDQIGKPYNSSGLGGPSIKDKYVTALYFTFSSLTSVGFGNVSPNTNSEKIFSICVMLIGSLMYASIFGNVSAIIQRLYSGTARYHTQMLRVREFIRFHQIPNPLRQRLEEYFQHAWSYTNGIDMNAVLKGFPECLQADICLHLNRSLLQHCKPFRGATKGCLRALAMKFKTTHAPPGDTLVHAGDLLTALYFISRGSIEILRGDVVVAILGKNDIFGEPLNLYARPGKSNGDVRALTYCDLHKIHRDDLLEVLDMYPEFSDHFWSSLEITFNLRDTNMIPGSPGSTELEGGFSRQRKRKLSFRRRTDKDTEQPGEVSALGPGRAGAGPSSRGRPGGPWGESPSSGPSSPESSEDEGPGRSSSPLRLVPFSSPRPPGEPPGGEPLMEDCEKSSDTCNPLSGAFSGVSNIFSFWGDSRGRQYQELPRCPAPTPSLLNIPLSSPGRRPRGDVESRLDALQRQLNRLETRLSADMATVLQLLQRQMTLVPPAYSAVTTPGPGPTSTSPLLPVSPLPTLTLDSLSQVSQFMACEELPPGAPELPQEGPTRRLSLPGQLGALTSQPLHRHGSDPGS

By Ki is commonly meant a dissociation constant, usually derived from enzyme kinetics or from competition with a known ligand. Usually IC50 stands for the concentration that gives 50% inhibition. Regarding `CS(=O)(=O)Nc1ccc(OC[C@@H](O)CN2CCN(c3ccc(Cl)cc3)CC2)cc1`, the Ki in data set [1] is 0.553 µM. The IC50 in data set [2] amounted to 0.35 µM; in data set [3] (pH 6.9, read-out: IC50 pH 6.9), 0.032 µM; in data set [3] (pH 7.6, read-out: IC50 pH 7.6) it was 0.27 µM.

`O[C@H](COc1ccc2[nH]ncc2c1)CN1CCN(c2ccc(Cl)cc2)CC1` had a Ki in data set [1] of around 1 µM. The 50% inhibitory concentration (IC50) in data set [2] was around 0.3 µM; in data set [3] (pH 6.9, read-out: IC50 pH 6.9), 0.41 µM; in data set [3] (pH 7.6, read-out: IC50 pH 7.6) it was 3.83 µM.

In turn, `O=c1ccc2cc(OC[C@@H](O)CN3CCN(c4ccc(Cl)cc4)CC3)ccc2[nH]1` gave a Ki in data set [1] of around 7.5 µM. In addition, the IC50 in data set [2] is around 0.35 µM; in data set [3] (pH 6.9, read-out: IC50 pH 6.9), 0.069 µM; in data set [3] (pH 7.6, read-out: IC50 pH 7.6), 0.55 µM.

For the compound `O=C1Cc2cc(OC[C@@H](O)CN3CCN(c4ccc(Cl)cc4)CC3)ccc2N1`, the Ki in data set [1] is around 10 µM. Further, the IC50 is around 0.1 µM in data set [2]; 0.37 µM in data set [3] (pH 6.9, read-out: IC50 pH 6.9); 0.029 µM in data set [3] (pH 7.6, read-out: IC50 pH 7.6).

Consider `O[C@H](COc1ccc2[nH]c(=S)[nH]c2c1)CN1CCN(c2ccc(Cl)cc2)CC1`, for which the Ki in data set [1] is around 7.5 µM. Also, the concentration for half-maximal inhibition (IC50) in data set [2] is around 0.15 µM; in data set [3] (pH 6.9, read-out: IC50 pH 6.9), 0.016 µM; in data set [3] (pH 7.6, read-out: IC50 pH 7.6), 0.076 µM.

For `O=C1CCc2cc(OC[C@@H](O)CN3CCN(c4ccc(Cl)cc4)CC3)ccc2N1`, in data set [1], the Ki was around 5 µM. In addition, the IC50 in data set [2] was around 0.1 µM; in data set [3] (pH 6.9, read-out: IC50 pH 6.9), 0.012 µM; in data set [3] (pH 7.6, read-out: IC50 pH 7.6) it was 0.066 µM.

The compound `Oc1ccc(OC[C@@H](O)CN2CCN(c3ccc(Cl)cc3)CC2)cc1` [drawing 775] had a Ki in data set [1] of 39 µM. In addition, the IC50 was 0.72 µM in data set [2]; 0.074 µM in data set [3] (pH 6.9, read-out: IC50 pH 6.9); 0.555 µM in data set [3] (pH 7.6, read-out: IC50 pH 7.6).

In turn, `O=c1[nH]c2ccc(OC[C@@H](O)CN3CCN(c4ccc(Cl)cc4)CC3)cc2o1` [drawing 776] registered a Ki in data set [1] of 1.6 µM. In addition, the IC50 in data set [2] stood at 0.62 µM; in data set [3] (pH 6.9, read-out: IC50 pH 6.9), 0.051 µM; in data set [3] (pH 7.6, read-out: IC50 pH 7.6), 0.447 µM.

In data set [1], `NC(=O)Nc1ccc(OC[C@@H](O)CN2CCN(c3ccc(Cl)cc3)CC2)cc1` [drawing 778] gave a Ki of 13 µM. The IC50 amounted to 0.34 µM in data set [2]; 0.046 µM in data set [3] (pH 6.9, read-out: IC50 pH 6.9); 0.452 µM in data set [3] (pH 7.6, read-out: IC50 pH 7.6).

Consider `O=c1[nH]c2ccc(OC[C@@H](O)CN3CCN(c4ccc(Cl)cc4)CC3)cc2[nH]1` [drawing 781], for which the inhibitory constant (Ki) in data set [1] is around 7.5 µM. Further, the IC50 in data set [2] was around 0.35 µM; in data set [3] (pH 6.9, read-out: IC50 pH 6.9), 0.014 µM; in data set [3] (pH 7.6, read-out: IC50 pH 7.6), 0.103 µM.

A word on the Cmax: it is the maximum level reached in the sampled fluid or tissue. As a reminder, the Tmax is the time from dosing to the highest level. In the case of `Cc1ccc(N2CCN(C[C@H](O)COc3ccc4c(c3)CCC(=O)N4)CC2)cc1` [drawing 812], in data set [4] (5 mg/kg, 5 MPK, 0-6 hr p.o.), the highest concentration (Cmax) turned out to be 407 ng/mL, the Tmax came out at 0.33 h, the bioavailability is 31.6% and the AUC(0-t) was determined as 549 ng·h/mL.

As to `Cc1ccc(N2CCN(C[C@H](O)COc3ccc4[nH]c(=O)oc4c3)CC2)cc1` [drawing 813], in data set [4] (10 mg/kg, 10 MPK, 0-8 hr p.o.), the Cmax was determined as 57.8 ng/mL, the Tmax came to 6.7 h, the bioavailability was found to be 7.9% and the AUC(0-t) stood at 284 ng·h/mL.

Regarding `O=c1[nH]c2ccc(OC[C@@H](O)CN3CCN(c4ccc(Cl)cc4)CC3)cc2o1` [drawing 814], in data set [4] (10 mg/kg, 10 MPK, 0-8 hr p.o.), the peak level (Cmax) was 30.6 ng/mL, the time of peak concentration (Tmax) amounted to 8 h, the bioavailability came to 6.2% and the AUC(0-t) turned out to be 132 ng·h/mL.

As to `Oc1ccc(OC[C@@H](O)CN2CCN(c3ccc(Cl)cc3)CC2)cc1` [drawing 815], in data set [4] (10 mg/kg, 10 MPK, 0-8 hr p.o.), the Cmax was 10.2 ng/mL, the Tmax was 5.3 h, the bioavailability came out at 3.3% and the AUC(0-t) turned out to be 56.4 ng·h/mL.
